Data taken from patent US10675352B2 (CENTROSE, LLC, priority 2014, dated 2020).
Where two headings read alike, the source gives them in different places.

Assays:
SU-DHL-8 cells [1] = test: cells; conditions: Homo sapiens, SU-DHL-8, 72 h, read-out: EC50 in picoM, SUDHL8
Ramos [2] = test: cells; conditions: Homo sapiens, 72 h, read-out: EC50 in picoM, Ramos
[3] = system: HL60, U937, MV411, Hut78, H929, and RAMOS; test: In vitro cytotoxic activity on six human blood cancer cell types, overall statements; format: cell-based; conditions: all cell lines tested except RAMOS
Protocol: Agent loading was determined to be about 4.

SU-DHL-8 cells [4] = conditions: agents and agent-linker intermediates; value in parentheses; 3 days incubation
Ramos [5] = system: Ramos

Row | SMILES | EC50 (SU-DHL-8 cells [1]) | EC50 (Ramos [2]) | effect of ATRA alone on cell growth [3] | % viab., SUDHL8 (SU-DHL-8 cells [4]) | % viab., Ramos (Ramos [5]; human, 3 days) | % viab., Ramos (Ramos [5]; agents and agent-linker intermediates, value in parentheses, 3 days incubation)
1 | C[C@]12CC[C@H](OC(=O)NCCCN3CCN(CCCN)CC3)C[C@H]1CC[C@@H]1[C@@H]2CC[C@]2(C)[C@@H](C3=CC(=O)OC3)CC[C@]12O | > 50 nM | > 50 nM |  |  |  | 
2 | CN(CCCN)CCCNC(=O)O[C@H]1CC[C@@]2(C)C(CCC3C2CC[C@]2(C)C(c4ccc(=O)oc4)CC[C@]32O)C1 (stereo in doubt) [CEN-372, 5-[(1S,2S,5S,7R,10R,11S,14S,15R)-5-{3-[N-Methyl(3-aminopropyl)amino]propylaminocarbonyloxy}-11-hydroxy-2,15-dimethyltetracyclo[8.7.0.02,7.011,15]heptadec-14-yl]-2-pyranone] | 4.4 nM | 3.6 nM |  |  |  | 
3 | C[C@]12CC[C@H](OC(=O)NCCCNCCCN)CC1CCC1C2CC[C@]2(C)C(c3ccc(=O)oc3)CC[C@]12O (stereo in doubt) [CEN-373, 5-{(1S,2S,5S,7R,10R,11S,14S,15R)-5-[3-(3-Aminopropylamino)propylaminocarbonyloxy]-11-hydroxy-2,15-dimethyltetracyclo[8.7.0.02,7.011,15]heptadec-14-yl}-2-pyranone] | 5.9 nM | 4 nM |  |  |  | 
4 | CC1=C(/C=C/C(C)=C/C=C/C(C)=C/C(=O)O)C(C)(C)CCC1 [ATRA, all-trans-retinoic acid] |  |  | slowed cell growth |  |  | 
5 | C[C@]12CC[C@H](O)C[C@H]1CC[C@@H]1[C@@H]2CC[C@]2(C)[C@@H](c3ccc(=O)oc3)CC[C@]12O [Bufalin, reference compound] | 16 nM | 7.3 nM |  |  |  | 
6 | C[C@]12CCC(OC[C@@H]3OC[C@H](N)C(O)C3O)C=C1CCC1C2CC[C@]2(C)[C@@H](c3ccc(=O)oc3)CC[C@]12O (some centres unmarked) [CEN09-106] | 2.07 nM | 1.9 nM |  | 0% |  | 
7 | C[C@]12CC[C@H](OC[C@@H]3OC[C@H](N)C(O)C3O)CC1CCC1C2CC[C@]2(C)[C@@H](C3=CC(=O)OC3)CC[C@]12O (some centres unmarked) [CEN-319] | 8.4 nM | 5.8 nM |  |  | 0% | 
8 | C[C@]12CC[C@H](OC(=O)NCCCN3CCN(CCCN)CC3)CC1CCC1C2CC[C@]2(C)[C@@H](c3ccc(=O)oc3)CC[C@]12O (some centres unmarked) [CEN-371] | 11 nM | 7.81 nM |  | 0% |  | 0%
9 | C[C@]12CC[C@H](O)C[C@H]1CC[C@@H]1[C@@H]2CC[C@]2(C)[C@@H](C3=CC(=O)OC3)CC[C@]12O [Digitoxigenin, reference compound] | > 50 nM | > 50 nM |  |  |  | 
10 | C[C@]12CC[C@H](O)C=C1CC[C@@H]1[C@@H]2CC[C@]2(C)[C@@H](c3ccc(=O)oc3)CC[C@]12O [Scillarenin, reference compound] | 18 nM | 17 nM |  |  |  | 
